Results as given in US20230414546A1, “Combined Therapy Against Cancer” (UNIVERSITAT POLITÈCNICA DE CATALUNYA, priority 2020, published 2023).

What was measured:
143.6 sarcospheres = experiment: Sarcosphere formation (cancer stem cells), 143.B; type: cell-based, human; settings: 143.6 cells; treated at day 3 for 7 days; PTM 5 and 20 min, S3I-201 100 μM
Experimental: (§1) FIGS. 7A-7C. Synergic effect of the combined therapy on sarcosphere number reduction. The (A) MG-63 sarcospheres and (B) 143.6 sarcospheres formed were scored (size […]) and counted. Data represent the number of sarcospheres formed as mean and standard deviation of n=6 independent experiments (*p<0.01; **p<0.001; ****p<0.0001 one-way ANOVA). (C) Concentration of NO2- and H2O2 in micromolar concentration in PTM 5, 10 or 20 min.
(§2) Osteosarcoma cells MG-63 and 143.B were cultured in sarcosphere-forming conditions (Cancer Stem Cell (CSC) isolation standard method) for 3 days and then were incubated for another 7 days in contact with PTM according to the following parameters: Helium flow rate: 1 L/min; Gap between APPJ nozzle and CSC medium surface: 10 mm; Treatment times: between 5 and 20 minutes. The CSC Medium was DMEM/F-12 supplemented with GlutaMAX™ (1X; Gibco™, cat.no 10565018, Carlsbad, CA, USA), B-27 Supplement (1:50; Life Technologies), Heparin (1:1000; Sigma), human bEGF (20 ng/ml), human bFGF (10 ng/ml; GoldBio) and sodium pyruvate. The sarcospheres were treated at day 3 with PTM (5 and 20 min), with S3I-201 (100 μM) or with the combination of both for 7 days more.

[1] = tested on: human 143B osteosarcoma cells; experiment: Murine orthotopic osteosarcoma model, tumor volume; type: in vivo; settings: nude mice, tibia; daily para-tumoral 100 μL PTM—20 min; 5 mg/kg S3I-201 orally three times per week; versus control
Experimental: FIG. 8. […] Tumor volume of the different groups at final day (when tumors reach 1000 mm^3) . The one-way ANOVA was performed to determine the statistical significance between control and treated groups.
To investigate the role PTM in combination with S3I-201 in osteosarcoma disease development, we used a murine orthotopic osteosarcoma model in which human 143B osteosarcoma cells are injected into the tibia of immunodeficient mice. All in vivo tumor experiments were performed with female nude mice (NMRI-Foxn1 nu/nu mice from Janvier Labs). For orthotopic primary tumor growth, 50,000 cells were injected into the right tibia of 7 weeks old mice under isoflurane anaesthesia. Mice received a daily para-tumoral injection of 100 μL of PTM—20 min or 5 mg/kg S3I-201 (orally, dissolved in corn oil) three times per week, or a combination of both treatments. In parallel, control group received a daily para-tumoral injection of Ringer's Saline or 200 μL corn oil orally. Primary tumors were detected and quantified by bioluminescent in vivo imaging five days day after cell injection and subsequently once a week until the tumors reached the study endpoint (termination criterion: primary tumor total flux>[…] photons/s). […] The one-way ANOVA was performed to determine the statistical significance between control and treated groups.

MG-63 sarcospheres = experiment: Sarcosphere formation (cancer stem cells), MG-63; type: cell-based; settings: treated at day 3 for 7 days, PTM 5 and 20 min, S3I-201 100 μM
Experimental: as §1, §2

osteosarcoma cell lines = settings: in vitro, cited from earlier work
[2] = Concentration of reactive species in plasma-treated hydrogel compositions; type: physicochemical; settings: plasma treatment 180 seconds, concentration in the material
Excerpt: The RONS concentration is quantified either using the AR/HRP reagent method or the Griess reagent method for H2O2 and NOi, respectively. Also, plastic strips with test paper which allow quantification of H2O2 based on a redox reaction and NOi, also using the Griess reagent may be used when a hydrogel is used and the protein solution causes interferences with the AR/HRP reagent method or the Griess reagent method. These two methods give equivalent results.
A 50/50 blend of 0.5 weight % alginate and 2 weight % gelatin solutions were prepared (final concentration of 0.25% wt alginate and 1% wt gelatin). The mixture of alginate/gelatin was prepared is by vortexing in a ratio 1:1, 2% wt gelatin with 0.5% wt alginate for 2 minutes. Gelatin in powder is mixed with MilliQ water at 37° C. using magnetic stirring for 2 hours to obtain a 2% wt gelatin gel. 0.5% alginate was prepared by mixing alginate powder with MilliQ water using a SpeedMixer™ DAC 150.1 FVZ-K (SpeedMixer™, Germany) at 3500 r.p.m. for 15 min. The 0.25% wt alginate and 1% wt gelatin aqueous mixture was treated with an atmospheric pressure plasma jet kINPen IND® (Neoplas, Germany) operating with Argon to generate plasma. Treatment conditions: 1 Umin gas flow, 10 mm nozzle distance, and 180 seconds treatment. Treatment performed in 200 μL of mixture in a 96-well plate. […]

Molecule | number / growth of sarcospheres at day 10 (143.6 sarcospheres) | tumor volume at final day [1] | number / growth of sarcospheres at day 10 (MG-63 sarcospheres) | apoptosis (osteosarcoma cell lines; caspase-3 pathway) | cell growth and colony formation (osteosarcoma cell lines) | H2O2 [2] [mg/L] | NO2− [2] [mg/L]
Cc1ccc(S(=O)(=O)OCC(=O)Nc2ccc(C(=O)O)c(O)c2)cc1 [S3I-201] | significantly reduced | display a tumor volume in a similar way that control | significantly reduced | apoptosis enhancement via the caspase-3 pathway | significant inhibition of cell growth and colony formation | – | –
Water | – | – | – | – | – | 10.3 | 2.6
